Data published in article PMC8352719 (The Journal of General Physiology, 2021).
Where “and” joins values, the source holds several entries; their conditions need not be identical. Identical values can stand only once. Entries after “also recorded” stand apart in the source; their conditions may differ. Like-named read-outs stand apart in the source and are kept apart here.

Assays:
BKα/γ1 channels = BKα/γ1 channels (Homo sapiens, UniProt Q12791); assay: Whole-cell recordings from HEK-293T cells overexpressing BKα/γ1 channels; format: cell-based
BKα/γ1 channels, sequence (Q12791 whole entry): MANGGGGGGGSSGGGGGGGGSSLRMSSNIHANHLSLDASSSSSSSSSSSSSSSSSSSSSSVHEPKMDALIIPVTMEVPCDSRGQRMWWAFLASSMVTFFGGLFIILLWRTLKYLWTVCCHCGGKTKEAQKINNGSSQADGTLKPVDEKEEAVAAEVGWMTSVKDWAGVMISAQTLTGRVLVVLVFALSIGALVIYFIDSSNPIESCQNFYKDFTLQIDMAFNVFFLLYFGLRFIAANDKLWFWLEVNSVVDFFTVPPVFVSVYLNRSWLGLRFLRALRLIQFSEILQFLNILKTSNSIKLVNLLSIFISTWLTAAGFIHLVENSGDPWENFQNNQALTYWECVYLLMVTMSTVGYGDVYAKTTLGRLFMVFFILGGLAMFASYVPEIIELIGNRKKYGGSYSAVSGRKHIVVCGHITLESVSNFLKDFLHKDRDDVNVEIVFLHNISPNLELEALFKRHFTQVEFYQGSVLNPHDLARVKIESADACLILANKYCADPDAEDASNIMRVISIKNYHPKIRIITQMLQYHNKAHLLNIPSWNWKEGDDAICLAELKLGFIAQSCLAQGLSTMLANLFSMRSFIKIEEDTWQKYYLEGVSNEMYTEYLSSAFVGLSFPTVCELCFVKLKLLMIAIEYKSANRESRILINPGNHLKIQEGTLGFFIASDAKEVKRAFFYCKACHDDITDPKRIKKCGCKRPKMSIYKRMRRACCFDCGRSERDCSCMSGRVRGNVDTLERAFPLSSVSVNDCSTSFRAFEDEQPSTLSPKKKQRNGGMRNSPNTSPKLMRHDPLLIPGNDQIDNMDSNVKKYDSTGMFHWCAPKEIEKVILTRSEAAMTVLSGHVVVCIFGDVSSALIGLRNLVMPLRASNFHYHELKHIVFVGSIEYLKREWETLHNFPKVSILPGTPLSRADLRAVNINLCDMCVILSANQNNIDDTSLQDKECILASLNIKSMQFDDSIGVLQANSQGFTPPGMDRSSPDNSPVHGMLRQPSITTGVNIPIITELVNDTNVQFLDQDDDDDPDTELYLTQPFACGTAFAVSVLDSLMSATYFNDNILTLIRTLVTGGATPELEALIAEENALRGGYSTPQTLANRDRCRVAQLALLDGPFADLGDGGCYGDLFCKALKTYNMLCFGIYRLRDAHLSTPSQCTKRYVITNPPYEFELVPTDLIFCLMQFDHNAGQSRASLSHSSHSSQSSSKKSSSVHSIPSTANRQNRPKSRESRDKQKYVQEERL
BKα/γ1 channels, sequence (Q2I0M4 27-334 partner): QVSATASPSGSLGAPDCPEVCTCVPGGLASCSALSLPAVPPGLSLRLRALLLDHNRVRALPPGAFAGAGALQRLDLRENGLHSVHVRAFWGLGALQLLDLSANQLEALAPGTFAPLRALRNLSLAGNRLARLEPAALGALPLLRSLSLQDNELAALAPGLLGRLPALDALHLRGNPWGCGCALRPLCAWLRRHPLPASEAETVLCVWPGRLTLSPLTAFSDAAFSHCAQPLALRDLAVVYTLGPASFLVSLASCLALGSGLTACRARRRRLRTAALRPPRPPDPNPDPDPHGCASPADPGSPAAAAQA

[1] = target: BKα/γ1 channels (human BK channel α- and γ1-subunits (LRRC26), HEK-293T) (Homo sapiens, UniProt Q12791); assay: Macroscopic BK currents in excised inside-out patches; format: biochemical
BKα/γ1 channels (human BK channel α- and γ1-subunits (LRRC26), HEK-293T), sequence (Q12791 whole entry): as the sequence (Q12791 whole entry) above
BKα/γ1 channels (human BK channel α- and γ1-subunits (LRRC26), HEK-293T), sequence (Q2I0M4 27-334 partner): as the sequence (Q2I0M4 27-334 partner) above

BKα channels = BKα channels (Homo sapiens, UniProt Q12791); assay: Kinetic model analysis
BKα channels, sequence (Q12791 whole entry): as the sequence (Q12791 whole entry) above

[2] = LOP levels with a therapeutic dose in humans; format: in vivo; conditions: therapeutic dose of 2–4 mg, assuming solvation in 1 liter of luminal fluid
[3] = target: T1, BKα channels (human BK channel α-subunit, HEK-293T) (Homo sapiens, UniProt Q12791); conditions: for τ of decay phase on LOP application: perfusion limited; for V1/2: 10 μM LOP; for effective off-rate: IC50 × on-rate; for τrecovery: two-pulse protocol
T1 sequence (Q12791 whole entry, the tested form may be a part): as the sequence (Q12791 whole entry) above

[4] = target: T1, BKα channels (human BK channel α-subunit, HEK-293T); conditions: 30 µM LOP
BK channel = conditions: ref Vouga et al., 2019; cited from earlier work
[5] = humans; therapeutic dose of 2–4 mg; conversion of 2 ng/ml; cited from earlier work
[6] = target: T1, BKα channels (human BK channel α-subunit, HEK-293T); assay: biochemical
[7] = IC50 (Hill fit of mean Gmax versus [LOP]), nominally 0 Ca2+
[8] = IC50 (Hill fit of mean V1/2 versus [LOP]), nominally 0 Ca2+
[9] = nominally 0 Ca2+, 30 μM LOP, mean of individual Boltzmann fits
[10] = nominally 0 Ca2+, −100 to −60 mV

SMILES: CC[N+](CC)(CC)CC [TEA]
- fractional current not blocked (BKα/γ1 channels; 1 mM extracellular TEA): 0.082 ± 0.0007
- time constant to reach equilibrium (BKα/γ1 channels; bath application of 1 mM TEA): 8.4 ± 1 s
- τ of exponential fit (c) (BKα/γ1 channels; representative experiment Fig. 5 A, back to 0 LOP/0 TEA at t = 17 min): 13.2 s
- τ of exponential fit (b) (BKα/γ1 channels; representative experiment Fig. 5 A, switch to 1 mM TEA at t = 15 min): 7.3 s

SMILES: CN(C)C(=O)C(CCN1CCC(O)(c2ccc(Cl)cc2)CC1)(c1ccccc1)c1ccccc1 [LOP, 4-[4-(4-chlorophenyl)-4-hydroxypiperidin-1-yl]-N,N-dimethyl-2,2-diphenylbutanamide]
- IC50 [1, 7]: 2.13 ± 0.3 µM
- IC50 [1, 8]: 1.5 ± 1.7 µM
- IC50 ([1]; IC50, nominally 0 Ca2+, Vm 0 mV, Hill fit of normalized G vs [LOP]): 11.3 ± 3.5 µM
- A (Eq. 4, IC50 versus voltage) ([1]; nominally 0 Ca2+): 7.6
- mean zδ value of G-V relations versus [LOP] ([1]; nominally 0 Ca2+): 1.2 e0
- min V1/2 (Hill fit of mean V1/2 versus [LOP]) ([1]; nominally 0 Ca2+): −15 ± 11 mV
- nH (Hill fit of mean Gmax versus [LOP]) ([1]; nominally 0 Ca2+): 0.74 ± 0.06
- nH (Hill fit of mean V1/2 versus [LOP]) ([1]; nominally 0 Ca2+): 0.72 ± 0.4
- Gmax [1, 9]: 0.12 ± 0.04
- V1/2 [1, 9]: −11 ± 5 mV
- current recovery after washout of LOP (of predrug amplitude) (BKα/γ1 channels; 10 µM LOP, extracellular bath): ~80%
- mean fractional whole-cell current at equilibrium (BKα/γ1 channels; bath application of 10 µM LOP, pulses to 100 mV): 0.39 ± 0.06
- slowing versus cytosolic application to excised inside-out patches (BKα/γ1 channels; extracellular bath-applied LOP): ~20 times
- mean time constant for inhibition to reach equilibrium (BKα/γ1 channels; extracellular bath-applied LOP (10 µM)): 2.8 ± 0.4 min
- τ of exponential fit (a) (BKα/γ1 channels; representative experiment Fig. 5 A, first application of 10 µM LOP at t = 5 min): 1.9 min
- τ of exponential fit (e) (BKα/γ1 channels; representative experiment Fig. 5 A, washout at t = 25 min): 51 s
- KLOP in the open state (BKα channels): 1.6 µM
- KLOP (dissociation constant for LOP binding) (BKα channels; Sch 2, closed state, global fit, nominally 0 and 88 μM Ca2+): 53.4 µM
- H (allosteric constant, LOP binding vs closed-open equilibrium) (BKα channels; Sch 2, fold difference in LOP affinity between closed and open states): 34.4
- W (coupling between LOP binding and CSD activation) (BKα channels; Sch 5): 1.09
- estimated concentration of LOP in the intestinal lumen [2]: ≥ 8 µM
- mean fractional current ([3]; 3 µM LOP cytosolic with 3 µM extracellular LOP (pipette), 88 µM Ca2+): 0.361 ± 0.013
- mean fractional current ([3]; 3 µM LOP cytosolic without extracellular LOP, 88 µM Ca2+): 0.292 ± 0.033
- effect of extracellular LOP alone on BK current ([3]; 3 µM LOP in pipette solution, 88 µM Ca2+, several minutes): little apparent effect; also recorded: no apparent inhibition
- decrease of normalized current ([3]; 3 µM LOP in the pipette, 0 LOP cytosolic, after 30 min of continuous recording): 5–10%
- τ of decay phase on LOP application ([3]; 30 µM LOP cytosolic, 0 µM Ca2+, representative experiment): 8.5 s
- τ of decay phase on LOP application ([3]; 30 µM LOP cytosolic, 88 µM Ca2+, representative experiment): 7.1 s
- current recovery after washout of LOP (of predrug amplitude) ([3]; 30 µM LOP cytosolic, Fig. 2 A): ~100%
- time constant of LOP reaching 90% of its maximal effect ([3]; 30 µM LOP to cytosolic side, 88 µM Ca2+, reflects solution switching): 7 ± 1 s
- A (Eq. 4, IC50 versus voltage) ([3]; 88 µM Ca2+): 0.39
- min V1/2 (Hill fit of mean V1/2 versus [LOP]) ([3]; 88 µM Ca2+): −57 ± 8 mV
- nH (Hill fit of mean Gmax versus [LOP]) ([3]; 88 µM Ca2+): 0.79 ± 0.06
- nH (Hill fit of mean V1/2 versus [LOP]) ([3]; 88 µM Ca2+): 0.94 ± 0.6
- y0 (final normalized current in pulse train) ([3]; 88 μM Ca2+, 3 µM LOP, 90 mV / -60 mV duration 2 / 2 ms): 0.50 ± 0.019
- y0 (final normalized current in pulse train) ([3]; 88 μM Ca2+, 3 µM LOP, 90 mV / -60 mV duration 2 / 8 ms): 0.74 ± 0.032
- V1/2 ([3]; 88 μM Ca2+, mean of individual Boltzmann fits): −54 ± 7 mV
- Gmax ([3]; 88 μM Ca2+, 30 μM LOP, mean of individual Boltzmann fits): 0.0763 ± 0.008
- effective on-rate (slope of 1/τdecay versus [LOP]) ([3]; 88 µM Ca2+, 50 mV): 4.3 ± 0.4 × 10^7 M^−1 s^−1 and 4.3 × 10^7 ± 0.4 × 10^7 M^−1 s^−1
- effective off-rate ([3]; 88 µM Ca2+, 50 mV): ~40 s⁻¹
- effective on-rate (slope of 1/τdecay versus [LOP]) ([3]; 88 µM Ca2+, 90 mV): 5.8 ± 0.6 × 10^7 M^−1 s^−1 and 5.8 × 10^7 ± 0.6 × 10^7 M^−1 s^−1
- effective off-rate ([3]; 88 µM Ca2+, 90 mV): 41 s⁻¹ and 40 s⁻¹
- nominal effective valence of on-rates (Eq. 5) ([3]; 88 µM Ca2+, on-rates at 50 and 90 mV): 0.21 ± 0.11 e0
- τrecovery ([3]; 88 µM Ca2+, −80 mV, 3 µM LOP): 3.87 ms
- τrecovery ([3]; 88 µM Ca2+, −80 mV, 10 µM LOP): 4.14 ms
- mean tail current τ ([3]; 88 µM Ca2+, −80 mV, 3 µM LOP): 1.82 ± 0.14 ms
- mean tail current τ ([3]; 88 µM Ca2+, −80 mV, 10 µM LOP): 2.05 ± 0.6 ms
- τrecovery ([3]; 88 µM Ca2+, −120 mV, 3 µM LOP): 2.04 ms
- τrecovery ([3]; 88 µM Ca2+, −120 mV, 10 µM LOP): 2.11 ms
- mean tail current τ ([3]; 88 µM Ca2+, −120 mV, 3 µM LOP): 0.71 ± 0.06 ms
- mean tail current τ ([3]; 88 µM Ca2+, −120 mV, 10 µM LOP): 0.78 ± 0.07 ms
- current recovery following washout of cytosolic LOP ([3]; 3 or 30 µM cytosolic LOP with 3 µM extracellular LOP, 88 µM Ca2+, Fig. 2 B): > 90%
- A (Eq. 4, IC50 versus voltage) ([3]; nominally 0 Ca2+): 5,500
- mean zδ value of G-V relations versus [LOP] ([3]; nominally 0 Ca2+): 1.1 e0
- min Gmax (Hill fit of mean Gmax versus [LOP]) ([3]; nominally 0 Ca2+): 0.16 ± 0.04
- min V1/2 (Hill fit of mean V1/2 versus [LOP]) ([3]; nominally 0 Ca2+): 162 ± 16 mV
- nH (Hill fit of mean Gmax versus [LOP]) ([3]; nominally 0 Ca2+): 1.2 ± 0.13
- nH (Hill fit of mean V1/2 versus [LOP]) ([3]; nominally 0 Ca2+): 0.65 ± 1.1
- V1/2 ([3]; nominally 0 Ca2+, mean of individual Boltzmann fits): 165 ± 5 mV
- time to complete reversal of inhibition upon washout ([3]; switch from 30 to 0 µM LOP, cytosolic side): ≤ 1 min
- τ of wash phase ([3]; washout of 30 µM LOP, 0 µM Ca2+, representative experiment): 35 s
- apparent closing rate (1/τclosing) ([3]; −80 mV, 3 µM LOP): 684 ± 57 s⁻¹
- tail current τ (fit to mean trace) ([3]; −80 mV, 3 µM LOP): 1.99 ms
- tail current τ (representative trace) ([3]; −80 mV, 3 µM LOP): 2.25 ms
- tail current τ (fit to mean trace) ([3]; −80 mV, 10 µM LOP): 1.77 ms
- tail current τ (representative trace) ([3]; −80 mV, 10 µM LOP): 1.73 ms
- apparent closing rate (1/τclosing) ([3]; −120 mV, 3 µM LOP): 1,460 ± 69 s^−1
- tail current τ (fit to mean trace) ([3]; −120 mV, 3 µM LOP): 0.82 ms
- tail current τ (representative trace) ([3]; −120 mV, 3 µM LOP): 0.876 ms
- tail current τ (fit to mean trace) ([3]; −120 mV, 10 µM LOP): 0.85 ms
- tail current τ (representative trace) ([3]; −120 mV, 10 µM LOP): 0.694 ms
- mean open times ([4]; voltages up to 100 mV, nominally 0 or 88 µM Ca2+): ≤ 0.44 ms
- V1/2 of mean open time (Boltzmann fit) ([4]; 88 µM Ca2+): −83 mV
- min. open time (Boltzmann fit) ([4]; 88 µM Ca2+): 0.26 ms
- zδ of mean open time (Boltzmann fit) ([4]; 88 µM Ca2+): 1.6 e0
- effective inhibition rate ([4]; 88 µM Ca2+, 1/0.43 ms): 2,326 s^−1
- mean open time ([4]; 88 µM Ca2+, +50 mV): 0.37 ± 0.044 ms
- maximum open time (Boltzmann fit) ([4]; 88 µM Ca2+, depolarized voltages): 0.43 ± 0.03 ms and 0.43 ms
- mean open time ([4]; 88 µM Ca2+, −50 mV): 0.44 ± 0.026 ms
- Po ([4]; 88 µM Ca2+, −90 mV): 0.00728 ± 0.0010
- inhibition of Po ([4]; 88 µM Ca2+, −90 mV): 2.7 fold
- mean open time ([4]; 88 µM Ca2+, −90 mV): 0.32 ± 0.03 ms
- Po ([4]; 88 µM Ca2+, −160 to −130 mV): 0.0037 ± 0.0003
- mean open time ([4]; 88 µM Ca2+, −160 to −130 mV): 0.26 ± 0.004 ms
- effective inhibition rate ([4]; nominally 0 Ca2+, 1/0.39 ms): 2,564 s^−1
- Po ([4]; nominally 0 Ca2+, +60 mV): 1.3 ± 0.6 × 10^−4
- inhibition of Po ([4]; nominally 0 Ca2+, +60 mV): 3.7 fold
- mean open time ([4]; nominally 0 Ca2+, +60 mV): 0.32 ± 0.03 ms
- Po ([4]; nominally 0 Ca2+, +80 mV): 5.4 ± 1.3 × 10^−4
- inhibition of Po ([4]; nominally 0 Ca2+, +80 mV): 3.5 fold
- mean open time ([4]; nominally 0 Ca2+, +80 mV): 0.38 ± 0.008 ms
- extrapolated maximum open time (Boltzmann fit) ([4]; nominally 0 Ca2+, depolarized voltages): 0.39 ± 0.04 ms
- mean Po [4, 10]: 1.7 ± 0.2 × 10^−6
- mean open time [4, 10]: 0.18 ± 0.009 ms
- inhibition of BK channel–mediated thallium flux (BK channel): potent inhibitor
- plasma levels of LOP [5]: ~4 nM
- IC50 ([6]; IC50 (Hill fit of mean Gmax versus [LOP]), 88 µM Ca2+): 1.06 µM and 1.1 µM
- IC50 [6, 7]: 1.4 µM and 1.41 µM
- IC50 ([6]; IC50 (Hill fit of mean V1/2 versus [LOP]), 88 µM Ca2+): 0.31 ± 0.3 µM
- IC50 [6, 8]: 0.55 µM
- IC50 ([6]; IC50(∞), asymptotic IC50 at very depolarized voltages (Eq. 4), 88 µM Ca2+): 0.87 µM
- IC50 ([6]; IC50(∞), asymptotic IC50 at very depolarized voltages (Eq. 4), nominally 0 Ca2+): 2.2 µM
- IC50 ([6]; IC50, 88 μM Ca2+, Vm 50 mV, Hill fit of normalized G vs [LOP]): ~0.94 µM
- IC50 ([6]; extrapolated IC50, 88 µM Ca2+, 90 mV): 0.71 µM
- IC50 ([6]; half-maximal inhibitory concentration (IC50) for open channels, voltage-activated BK current, wide range of cytosolic [Ca2+]): ~1 µM
